Measurements: patent US20070292512A1, “Solid Oral Dosage Form Containing an Enhancer” (priority 2006, published 2007)
Entries after “also recorded” stand apart in the source; their conditions may differ.

What was measured:
in vivo = experiment: in vivo; set-up: species or system beagle dogs; settings: beagle, dog
Protocol: The study was a single dose crossover study using from 2 to 5 dogs. Fasted animals were dosed weekly with an intravenous dose (reference) or one of three experimental romidepsin formulations administered directly into the duodenum via a surgically implanted cannula. In all cases the administered dose was 0.1 mg/kg body weight. Blood samples were obtained at selected time intervals post dosing and plasma was shipped to Japan Clinical Laboratories (JCL) for romidepsin analyses. Upon receipt of bioanalytical data from JCL, the individual animal plasma data were loaded into an Excel spreadsheet (Microsoft® Office Excel 2003) and the following pharmacokinetic parameters were calculated from the concentration-time data for each subject: Cmax, Tmax, T1/2, AUC(0-t) and % Bioavailability (% F). Pharmacokinetic parameters were calculated using macros written for Excel (Usansky et al., PK Functions for Microsoft Excel (1999) available at: www.boomer.org/[…].doc).

HDAC1 = HDAC1 (Homo sapiens, UniProt Q13547); settings: range stated for each enzyme; cited from earlier work
Sequence of HDAC1 (Q13547 whole entry): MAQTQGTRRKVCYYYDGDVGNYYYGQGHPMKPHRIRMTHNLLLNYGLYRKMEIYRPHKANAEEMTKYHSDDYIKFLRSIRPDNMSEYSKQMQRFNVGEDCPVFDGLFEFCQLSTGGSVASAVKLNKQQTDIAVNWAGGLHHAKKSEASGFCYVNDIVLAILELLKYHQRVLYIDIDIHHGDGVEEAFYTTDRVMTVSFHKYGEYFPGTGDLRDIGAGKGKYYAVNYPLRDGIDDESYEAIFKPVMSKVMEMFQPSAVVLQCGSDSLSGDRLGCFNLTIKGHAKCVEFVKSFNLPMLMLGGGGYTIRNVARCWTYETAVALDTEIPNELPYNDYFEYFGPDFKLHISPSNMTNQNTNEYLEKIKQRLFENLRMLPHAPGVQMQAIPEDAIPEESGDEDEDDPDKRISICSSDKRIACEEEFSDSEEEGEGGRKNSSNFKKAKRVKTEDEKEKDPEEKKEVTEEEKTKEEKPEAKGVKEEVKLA

HDAC4 = HDAC4 (Homo sapiens, UniProt P56524); settings: cited from earlier work
Sequence of HDAC4 (P56524 whole entry, species assumed): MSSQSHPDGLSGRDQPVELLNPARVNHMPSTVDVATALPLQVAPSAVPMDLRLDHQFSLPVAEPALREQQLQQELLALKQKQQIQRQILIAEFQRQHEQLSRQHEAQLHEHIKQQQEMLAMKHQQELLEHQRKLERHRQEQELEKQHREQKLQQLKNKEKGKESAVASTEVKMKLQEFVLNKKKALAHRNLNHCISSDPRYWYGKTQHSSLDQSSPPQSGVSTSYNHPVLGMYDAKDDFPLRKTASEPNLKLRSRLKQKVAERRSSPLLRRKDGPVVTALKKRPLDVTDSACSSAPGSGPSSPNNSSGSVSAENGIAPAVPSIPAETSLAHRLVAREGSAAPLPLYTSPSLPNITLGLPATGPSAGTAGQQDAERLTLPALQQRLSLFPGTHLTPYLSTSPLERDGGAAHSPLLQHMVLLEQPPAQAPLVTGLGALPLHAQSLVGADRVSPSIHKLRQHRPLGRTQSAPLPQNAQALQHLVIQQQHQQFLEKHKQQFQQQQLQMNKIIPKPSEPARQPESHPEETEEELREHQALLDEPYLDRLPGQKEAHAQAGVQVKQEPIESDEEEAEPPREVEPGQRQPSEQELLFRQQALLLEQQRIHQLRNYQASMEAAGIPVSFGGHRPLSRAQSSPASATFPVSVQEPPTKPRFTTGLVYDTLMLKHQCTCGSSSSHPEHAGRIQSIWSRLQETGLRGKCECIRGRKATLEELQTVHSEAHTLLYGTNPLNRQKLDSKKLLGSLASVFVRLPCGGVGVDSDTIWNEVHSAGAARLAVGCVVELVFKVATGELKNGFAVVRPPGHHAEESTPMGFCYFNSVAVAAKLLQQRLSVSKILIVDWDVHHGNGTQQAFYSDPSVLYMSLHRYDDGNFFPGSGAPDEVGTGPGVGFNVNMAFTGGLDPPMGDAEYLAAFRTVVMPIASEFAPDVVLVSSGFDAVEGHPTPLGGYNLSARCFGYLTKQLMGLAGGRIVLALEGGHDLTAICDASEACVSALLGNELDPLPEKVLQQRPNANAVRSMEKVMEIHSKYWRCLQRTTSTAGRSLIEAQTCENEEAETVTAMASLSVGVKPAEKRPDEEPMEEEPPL

HDAC6 = settings: cited from earlier work
[1] = cited from earlier work
[2] = tested on: human tumor xenografts and murine tumors; settings: human tumor xenografts and murine tumors in mouse models; cited from earlier work
HDAC = settings: compared to romidepsin; cited from earlier work
Caco-2 monolayers [3] = experiment: TEER in Caco-2 monolayers; type: cell-based; settings: sodium salts at concentrations of Table 1, with 3H-TRH, over 2 hours
Protocol: (§1) Cell Culture: Caco-2 cells were cultured in Dulbecco's Modified Eagles Medium (DMEM) 4.5 g/L glucose supplemented with 1% (v/v) non-essential amino acids; 10% fetal calf serum and 1% penicillin/streptomycin. […] The cells were grown and expanded in standard tissue culture flasks and were passaged once they attained 100% confluence. The Caco-2 cells were then seeded on polycarbonate filter inserts (Costar; 12 mm diameter, 0.4 μm pore size) at a density of 5×10^5 cells/cm^2 and incubated in six well culture plates with a medium change every second day. Confluent monolayers between day 20 and day 30 seeding on filters and at passages 30-40 were used throughout these studies.
(§2) The transport experiments were performed in Hank's Balanced Salt Solution (HBSS) containing 25 mM N-[2-hydroxyethyl]-piperazine-N′-[2-ethanesulfonic acid] (HEPES) buffer, pH 7.4 at 37° C. Due to variations in solubilities, various concentrations of the different MCFA sodium salts and various apical buffers were used as shown in Table 1. In all cases the basolateral chamber contained regular HBSS+HEPES.
(§3) After removing the cell culture medium, the monolayers were placed in wells containing pre-warmed HBSS (37° C.); 1 ml apically and 2 ml basolaterally. Monolayers were incubated at 37° C. for 30 minutes. Then at time zero, apical HBSS was replaced with the relevant apical test solution containing the radio-labeled compounds with and without the enhancer compound. […] The plates were placed on an orbital shaker in an incubator (37° C.). […] At each 30-minute interval, each insert was transferred to a new well containing 2 ml fresh pre-warmed HBSS. […] Mean values for ^3H-TRH concentrations were calculated for the apical and basolateral solutions at each time point.

Caco-2 monolayers [4] = experiment: 3H-TRH transepithelial transport (Papp) in Caco-2 monolayers; type: in vitro ADME; settings: sodium salts at concentrations of Table 1
Protocol: as §1, §2, §3

[5] = Closed loop rat model, intraduodenal TRH with enhancer, serum TRH; type: in vivo, Male Wistar rats; settings: intraduodenal bolus 500 or 1000 μg TRH with 35 mg enhancer
Protocol: Male Wistar rats (weight range 250 g-350 g) were anaesthetized with ketamine hydrochloride/acepromazine. […] All intraduodenal dose volumes (for samples and control) were 1 ml/kg. The proximal end of the segment was ligated, and the loop was sprayed with isotonic saline (37° C.) to provide moisture and then replaced in the abdominal cavity avoiding distension. The incision was closed with surgical clips. A group of animals were administered TRH in PBS (100 μg in 0.2 ml) by subcutaneous injection as a reference.

[6] = dog, in vivo
Protocol: Beagle dogs (10-15 Kg) were sedated with medetomidine (80 μg/kg) and an endoscope was inserted via the mouth, esophagus, and stomach into the duodenum. The test solutions (10 ml) comprising leuprolide acetate (Mallinckrodt Inc, St. Louis, Mo.) with or without enhancer reconstituted in deionized water were administered intraduodenally via the endoscope. Following removal of the endoscope, sedation was reversed using atipamezole (400 μg/kg). The parenteral reference solutions comprising 1 mg Leuprolide reconstituted in 0.5 ml sterile water were administered intravenously and subcutaneously respectively.

[7] = Closed-loop rat segment, intraileal USP heparin, APTT response; type: in vivo; settings: USP heparin 1000 iu intraileal, sodium caprate 10 and 35 mg
From the text: APTT measurements were taken at various time points.

anti-factor Xa activity [8] = experiment: Closed-loop rat segment, intraileal USP heparin, anti-factor Xa response; type: in vivo; settings: USP heparin 1000 iu
anti-factor Xa activity [9] = experiment: Dog study of oral heparin tablets, anti-factor Xa; type: in vivo; settings: IR formulations, equivalent dose of heparin, dogs
Protocol: Tablets from batches 3, 7 and 15 in Tables 5 and 6 above were dosed orally to groups of five dogs in a single dose crossover study. […] Blood samples for anti-factor Xa analysis were collected from the jugular vein at various time points.

In the case of `C/C=C1\NC(=O)[C@H]2CSSCC/C=C/[C@H](CC(=O)N[C@H](C(C)C)C(=O)N2)OC(=O)[C@H](C(C)C)NC1=O` [romidepsin, (1S,4S,10S,16E,21R)-7-[(2Z)-ethylidene]-4,2,1-diisopropyl-2-oxa-12,13-dithia-5,8,20,23-tetraazabicyclo[8.7.6]tricos-16-ene-3,6,9,19,22-pentanone], the bioavailability (in vivo) is given as at most 28%, the “times weaker than redFK in inhibiting HDAC1” value (HDAC1) is given as 17-23 times and the “times weaker than redFK in inhibiting HDAC4” value (HDAC4; range stated for each enzyme) is given as 17-23 times. The “times weaker than redFK in inhibiting HDAC6” value (HDAC6; range stated for each enzyme) was 17-23 times, the “stability in medium and serum” value [1] was “more stable than redFK” and the “in vivo antitumor activity” value [2] was “in vivo antitumor activity”.
In the case of `C/C=C1\NC(=O)[C@@H](CS)NC(=O)[C@@H](C(C)C)NC(=O)C[C@@H](/C=C/CCS)OC(=O)[C@H](C(C)C)NC1=O` [redFK], the “inhibitory effect against HDAC4” value (HDAC4; low nanomolar concentrations) is listed as “relatively weak”, the “inhibitory effect against HDAC6” value (HDAC6; low nanomolar concentrations) is listed as “relatively weak; also recorded: almost insensitive” and the “stability in medium and serum” value [1] is listed as “rapid inactivation”. The “inhibiting in vivo HDAC activity” value (HDAC) was “less active compared to romidepsin”.
With `CCCCCCCCCCCCCCCCCC(=O)[O-].[Na+]` [Batch C18] the “effect on TEER compared to the control” value (Caco-2 monolayers [3]) was “minimal reduction in TEER”.
With `CCCCCCCCCCCCCC(=O)[O-].[Na+]` [Batch C14] the “effect on TEER compared to the control” value (Caco-2 monolayers [3]) was “minimal reduction in TEER” and the “Papp for 3H-TRH compared to the control” value (Caco-2 monolayers [4]) was “considerable increases”.
In the case of `CCCCCCCC(=O)[O-].[Na+]` [NaC8, sodium caprylate], the “serum levels of TRH over the control TRH solution” value [5] is reported as “significantly increases the serum levels of TRH”.
In the case of `CCNC(=O)[C@@H]1CCCN1C(=O)[C@H](CCCNC(=N)N)NC(=O)[C@H](CC(C)C)NC(=O)[C@@H](CC(C)C)NC(=O)[C@H](Cc1ccc(O)cc1)NC(=O)[C@H](CO)NC(=O)[C@H](Cc1c[nH]c2ccccc12)NC(=O)[C@H](Cc1c[nH]cn1)NC(=O)[C@@H]1CCC(=O)N1` [leuprolide, leuprolide acetate], the “systemic delivery of leuprolide on coadministration with enhancer” value [6] is reported as “considerable enhancer dose dependent enhancement” and the “systemic delivery of leuprolide without enhancer” value [6] is reported as “negligible”.
In the case of `CCCCCCCCCCCC(=O)[O-].[Na+]` [Batch C12, sodium laurate], the “effect on TEER compared to the control” value (Caco-2 monolayers [3]) is reported as “some cell damage (reduction in TEER)” and the “Papp for 3H-TRH compared to the control” value (Caco-2 monolayers [4]) is reported as “considerable increases”.
In the case of `CCCCCCCCCC(=O)[O-].[Na+]` [NaC10, sodium caprate], the “effect on TEER compared to the control” value (Caco-2 monolayers [3]) is reported as “minimal reduction in TEER”, the “Papp for 3H-TRH compared to the control” value (Caco-2 monolayers [4]) is reported as “considerable increases” and the “serum levels of TRH over the control TRH solution” value [5] is reported as “significantly increases the serum levels of TRH”. The “heparin absorption by APTT response vs control heparin solution” value [7] was “significant increase in absorption”, the “anti-factor Xa activity relative to control heparin solution” value (anti-factor Xa activity [8]; enhancer 10 mg dose) was “significant increase in anti-factor Xa activity” and the “anti-factor Xa activity relative to control heparin solution” value (anti-factor Xa activity [8]; enhancer 35 mg dose) was “significant increase in anti-factor Xa activity”. For the same molecule, the “anti-factor Xa response, NaC10 versus NaC8 enhancer” value (anti-factor Xa activity [9]) was “larger anti-factor Xa response”.
